The source of these data is ChEMBL document CHEMBL3727356, “Therapeutic compounds and compositions” (2014).

Usually AC50 stands for the midpoint of the concentration-response curve, whichever way the signal moves.

For assay [1], the target named is Pyruvate kinase PKLR (Homo sapiens, UniProt P30613, R510Q). The assay is described as follows: Activation of PKR R510Q mutant (unknown origin) incubated for 60 mins in presence of ADP, PEP and NADH by Spectraax microplate reader based assay.
Assay [2] deals with Pyruvate kinase PKLR (Homo sapiens, UniProt P30613, R532W). Kind of assay: Activation of PKR R532W mutant (unknown origin) incubated for 60 mins in presence of ADP, PEP and NADH by Spectraax microplate reader based assay.
Chain of Pyruvate kinase PKLR (Homo sapiens, UniProt P30613, R532W) (P30613 whole entry R532W): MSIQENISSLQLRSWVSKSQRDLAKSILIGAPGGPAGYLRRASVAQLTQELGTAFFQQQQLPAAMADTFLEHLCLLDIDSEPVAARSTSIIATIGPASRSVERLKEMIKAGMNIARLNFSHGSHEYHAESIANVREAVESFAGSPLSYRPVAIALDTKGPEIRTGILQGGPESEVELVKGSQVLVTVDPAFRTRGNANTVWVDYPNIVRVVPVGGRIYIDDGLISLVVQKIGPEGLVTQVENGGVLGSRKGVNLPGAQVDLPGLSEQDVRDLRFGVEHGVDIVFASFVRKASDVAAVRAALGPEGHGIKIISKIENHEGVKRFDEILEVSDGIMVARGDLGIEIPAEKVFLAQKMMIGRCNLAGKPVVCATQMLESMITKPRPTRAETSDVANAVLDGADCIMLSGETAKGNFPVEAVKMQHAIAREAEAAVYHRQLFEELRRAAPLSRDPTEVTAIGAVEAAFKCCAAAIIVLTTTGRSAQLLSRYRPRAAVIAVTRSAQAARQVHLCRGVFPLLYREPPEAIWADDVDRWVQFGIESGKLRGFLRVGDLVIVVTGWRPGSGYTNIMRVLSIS
Assay [3] addresses T1, Pyruvate kinase PKLR (Homo sapiens, UniProt P30613). Kind of assay: Activation of wild type PKR (unknown origin) incubated for 60 mins in presence of ADP, PEP and NADH by Spectraax microplate reader based assay.
Assay [4] concerns the target T1, Pyruvate kinase PKLR. The assay is described as follows: Activation of wild type PKR (unknown origin) by cell based assay.

Chain of Pyruvate kinase PKLR (Homo sapiens, UniProt P30613, R510Q) (P30613 whole entry R510Q): as the sequence (P30613 whole entry R532W) above, with R510Q, W532R counted along it
T1 sequence (P30613 whole entry): as the sequence (P30613 whole entry R532W) above, with W532R counted along it

`CC(C)CC1(O)CCN(C(=O)c2ccc(NS(=O)(=O)c3cccc4ccc(N)nc34)cc2)CC1`: the AC50 at Pyruvate kinase PKLR [1], at Pyruvate kinase PKLR [2], on Pyruvate kinase PKLR [3] and at Pyruvate kinase PKLR [4] was below 100 nM throughout.

For `O=C(c1ccc(NS(=O)(=O)c2cccc3nccnc23)cc1)N1CCC(O)(Cc2ccccc2C(F)(F)F)CC1`, the AC50 on Pyruvate kinase PKLR [1], at Pyruvate kinase PKLR [2], at Pyruvate kinase PKLR [3] and at Pyruvate kinase PKLR [4] was below 100 nM throughout.

On to `Cc1cnc2cccc(S(=O)(=O)Nc3ccc(C(=O)N4CCC(O)(CC(C)C)CC4)cc3)c2n1`, for which the AC50 on Pyruvate kinase PKLR [1], on Pyruvate kinase PKLR [2], on Pyruvate kinase PKLR [3] and at Pyruvate kinase PKLR [4] was below 100 nM each time.

For the compound `Cc1cc(C(=O)N2CCC(O)(Cc3ccccc3)CC2)ccc1NS(=O)(=O)c1cccc2cccnc12`, the concentration at half-maximal activity (AC50) on Pyruvate kinase PKLR [1], on Pyruvate kinase PKLR [2], on Pyruvate kinase PKLR [3] and at Pyruvate kinase PKLR [4] was below 100 nM throughout.

With `Nc1nc2c(S(=O)(=O)Nc3ccc(C(=O)N4CCC(O)(CCCC(F)(F)F)CC4)cc3)cccc2s1`, the AC50 on Pyruvate kinase PKLR [1], at Pyruvate kinase PKLR [2], at Pyruvate kinase PKLR [3] and at Pyruvate kinase PKLR [4] was below 100 nM throughout.

`O=C(c1ccc(NS(=O)(=O)c2cccc3cc(F)cnc23)cc1)N1CCC(O)(Cc2ccccc2)CC1`: the AC50 at Pyruvate kinase PKLR [1], at Pyruvate kinase PKLR [2], at Pyruvate kinase PKLR [3] and at Pyruvate kinase PKLR [4] was below 100 nM in each case.

As to `CNc1nc2c(S(=O)(=O)Nc3ccc(C(=O)N4CCC(O)(CC(C)C)CC4)cc3)cc(Cl)cc2s1`, the AC50 on Pyruvate kinase PKLR [1], on Pyruvate kinase PKLR [2], on Pyruvate kinase PKLR [3] and at Pyruvate kinase PKLR [4] was below 100 nM each time.

As to `O=C(c1ccc(NS(=O)(=O)c2cccc3cccnc23)cc1OC(F)(F)F)N1CCC(O)(c2ccccc2Cl)CC1`, the AC50 on Pyruvate kinase PKLR [1], at Pyruvate kinase PKLR [2], at Pyruvate kinase PKLR [3] and on Pyruvate kinase PKLR [4] was below 100 nM throughout.

In the case of `C=C(CC1(O)CCN(C(=O)c2ccc(NS(=O)(=O)c3cccc4scnc34)cc2)CC1)C(F)(F)F`, the AC50 on Pyruvate kinase PKLR [1], on Pyruvate kinase PKLR [2], on Pyruvate kinase PKLR [3] and at Pyruvate kinase PKLR [4] was below 100 nM in each case.

In the case of `O=C(c1ccc(NS(=O)(=O)c2ccc(F)c3nccnc23)cc1)N1CCC(O)(c2cccc(F)c2F)CC1`, the AC50 was at most 1000 nM at Pyruvate kinase PKLR [1], below 100 nM on Pyruvate kinase PKLR [2], below 100 nM at Pyruvate kinase PKLR [3] and at least 1010 nM at Pyruvate kinase PKLR [4].

Turning to `Cc1cc(C(=O)N2CCC(O)(c3ccccc3Cl)CC2)ccc1NS(=O)(=O)c1cccc2cccnc12`, the AC50 on Pyruvate kinase PKLR [1], at Pyruvate kinase PKLR [2], on Pyruvate kinase PKLR [3] and at Pyruvate kinase PKLR [4] was below 100 nM each time.

Turning to `CC(CC1(O)CCN(C(=O)c2ccc(NS(=O)(=O)c3cccc4scnc34)cc2)CC1)C(F)(F)F` (stereo not given), the AC50 at Pyruvate kinase PKLR [1], on Pyruvate kinase PKLR [2], on Pyruvate kinase PKLR [3] and at Pyruvate kinase PKLR [4] was below 100 nM in each case.

Turning to `CNc1nc2c(S(=O)(=O)Nc3ccc(C(=O)N4CCC(O)(CC(C)C)CC4)cc3)cccc2s1`, the concentration at half-maximal activity (AC50) at Pyruvate kinase PKLR [1], on Pyruvate kinase PKLR [2], at Pyruvate kinase PKLR [3] and at Pyruvate kinase PKLR [4] was below 100 nM in each case.

As to `CC(C)CC1(C=O)CCN(C(=O)c2ccc(NS(=O)(=O)c3cccc4cccnc34)cc2)CC1`, the half-maximal activity concentration (AC50) at Pyruvate kinase PKLR [1], on Pyruvate kinase PKLR [2], at Pyruvate kinase PKLR [3] and on Pyruvate kinase PKLR [4] was below 100 nM in each case.

As for `Nc1nc2c(S(=O)(=O)Nc3ccc(C(=O)N4CCC(O)(c5ccccc5Cl)CC4)cc3)cccc2s1`, the AC50 on Pyruvate kinase PKLR [1], on Pyruvate kinase PKLR [2], on Pyruvate kinase PKLR [3] and at Pyruvate kinase PKLR [4] was below 100 nM in each case.

For `O=C(c1ccc(NS(=O)(=O)c2cccc3nccnc23)cc1)N1CCC(O)(CCC=C(F)F)CC1`, the half-maximal activity concentration (AC50) at Pyruvate kinase PKLR [1], at Pyruvate kinase PKLR [2], at Pyruvate kinase PKLR [3] and on Pyruvate kinase PKLR [4] was below 100 nM each time.

Regarding `O=C(c1ccc(NS(=O)(=O)c2cccc3cccnc23)cc1)N1CCC(O)(Cc2cccc(F)c2)CC1`, the AC50 at Pyruvate kinase PKLR [1], on Pyruvate kinase PKLR [2], at Pyruvate kinase PKLR [3] and at Pyruvate kinase PKLR [4] was below 100 nM in each case.

With `CC(C)CC1(O)CCN(C(=O)c2ccc(NS(=O)(=O)c3cccc4cccnc34)cc2)CC1`, the half-maximal activity concentration (AC50) at Pyruvate kinase PKLR [1], on Pyruvate kinase PKLR [2], at Pyruvate kinase PKLR [3] and on Pyruvate kinase PKLR [4] was below 100 nM each time.

As to `O=C(c1ccc(NS(=O)(=O)c2cccc3cccnc23)cc1)N1CCC(O)(Cc2ccccc2)CC1`, the AC50 at Pyruvate kinase PKLR [1], at Pyruvate kinase PKLR [2], on Pyruvate kinase PKLR [3] and on Pyruvate kinase PKLR [4] was below 100 nM throughout.

With `Nc1cnc2c(S(=O)(=O)Nc3ccc(C(=O)N4CCC(O)(CCCC(F)(F)F)CC4)cc3)cccc2n1`, the AC50 on Pyruvate kinase PKLR [1], on Pyruvate kinase PKLR [2], on Pyruvate kinase PKLR [3] and on Pyruvate kinase PKLR [4] was below 100 nM each time.

Take `CC(C)CC1(O)CCN(C(=O)c2ccc(NS(=O)(=O)c3cccc4ncc(N)nc34)cc2)CC1`: the AC50 at Pyruvate kinase PKLR [1], at Pyruvate kinase PKLR [2], at Pyruvate kinase PKLR [3] and at Pyruvate kinase PKLR [4] was below 100 nM each time.

Regarding `O=C(c1ccc(NS(=O)(=O)c2cccc3cccnc23)cc1)N1CCC(O)(Cc2c(F)cccc2F)CC1`, the AC50 at Pyruvate kinase PKLR [1], on Pyruvate kinase PKLR [2], at Pyruvate kinase PKLR [3] and at Pyruvate kinase PKLR [4] was below 100 nM throughout.

As for `O=C(c1ccc(NS(=O)(=O)c2cccc3cccnc23)cc1)N1CCC(O)(c2ccc(F)cc2Cl)CC1`, the half-maximal activity concentration (AC50) at Pyruvate kinase PKLR [1], at Pyruvate kinase PKLR [2], on Pyruvate kinase PKLR [3] and at Pyruvate kinase PKLR [4] was below 100 nM throughout.

Take `Cc1cc(C(=O)N2CCC(O)(c3ccccc3Cl)CC2)ccc1NS(=O)(=O)c1cccc2nccnc12`: the AC50 on Pyruvate kinase PKLR [1], on Pyruvate kinase PKLR [2], at Pyruvate kinase PKLR [3] and on Pyruvate kinase PKLR [4] was below 100 nM in each case.

For `CC(C)(C)CC1(O)CCN(C(=O)c2ccc(NS(=O)(=O)c3cccc4cccnc34)cc2)CC1`, the concentration at half-maximal activity (AC50) on Pyruvate kinase PKLR [1], on Pyruvate kinase PKLR [2], at Pyruvate kinase PKLR [3] and at Pyruvate kinase PKLR [4] was below 100 nM in each case.

Turning to `CC(C)CC1(O)CCN(C(=O)c2ccc(NS(=O)(=O)c3cccc4sc(N)nc34)cc2)CC1`, the half-maximal activity concentration (AC50) on Pyruvate kinase PKLR [1], at Pyruvate kinase PKLR [2], on Pyruvate kinase PKLR [3] and on Pyruvate kinase PKLR [4] was below 100 nM in each case.

Take `Cc1cc(C(=O)N2CCC(O)(c3cccc(Cl)c3)CC2)ccc1NS(=O)(=O)c1cccc2cccnc12`: the AC50 was at most 1000 nM at Pyruvate kinase PKLR [1], below 100 nM on Pyruvate kinase PKLR [2], below 100 nM at Pyruvate kinase PKLR [3] and below 100 nM at Pyruvate kinase PKLR [4].

As for `CC(CC1(O)CCN(C(=O)c2ccc(NS(=O)(=O)c3cccc4sc(N)nc34)cc2)CC1)C(F)(F)F` (stereo not given), the AC50 at Pyruvate kinase PKLR [1], on Pyruvate kinase PKLR [2], at Pyruvate kinase PKLR [3] and on Pyruvate kinase PKLR [4] was below 100 nM in each case.

As for `Cc1ccccc1CC1(O)CCN(C(=O)c2ccc(NS(=O)(=O)c3cccc4cccnc34)cc2)CC1`, the AC50 on Pyruvate kinase PKLR [1], at Pyruvate kinase PKLR [2], at Pyruvate kinase PKLR [3] and on Pyruvate kinase PKLR [4] was below 100 nM throughout.

Regarding `O=C(c1ccc(NS(=O)(=O)c2cccc3nccnc23)cc1)N1CCC(O)(CCCC(F)(F)F)CC1`, the half-maximal activity concentration (AC50) at Pyruvate kinase PKLR [1], at Pyruvate kinase PKLR [2], at Pyruvate kinase PKLR [3] and on Pyruvate kinase PKLR [4] was below 100 nM each time.

Consider `CC(C)CC1(O)CCN(C(=O)c2ccc(NS(=O)(=O)c3cccc4c(O)ncnc34)cc2)CC1`, for which the AC50 at Pyruvate kinase PKLR [1], on Pyruvate kinase PKLR [2], at Pyruvate kinase PKLR [3] and at Pyruvate kinase PKLR [4] was below 100 nM in each case.

For `CC1(CC2(O)CCN(C(=O)c3ccc(NS(=O)(=O)c4cccc5cccnc45)cc3)CC2)CC1`, the AC50 at Pyruvate kinase PKLR [1], on Pyruvate kinase PKLR [2], at Pyruvate kinase PKLR [3] and at Pyruvate kinase PKLR [4] was below 100 nM each time.

On to `Nc1cnc2c(S(=O)(=O)Nc3ccc(C(=O)N4CCC(O)(c5cccc(F)c5F)CC4)cc3)cccc2n1`, for which the AC50 on Pyruvate kinase PKLR [1], at Pyruvate kinase PKLR [2], on Pyruvate kinase PKLR [3] and on Pyruvate kinase PKLR [4] was below 100 nM throughout.

In the case of `O=C(c1ccc(NS(=O)(=O)c2cccc3scnc23)cc1)N1CCC(O)(CCCC(F)F)CC1`, the AC50 on Pyruvate kinase PKLR [1], on Pyruvate kinase PKLR [2], on Pyruvate kinase PKLR [3] and on Pyruvate kinase PKLR [4] was below 100 nM in each case.

Turning to `CC(C)(C)CC1(O)CCN(C(=O)c2ccc(NS(=O)(=O)c3ccc(F)c4cccnc34)cc2)CC1`, the AC50 at Pyruvate kinase PKLR [1], on Pyruvate kinase PKLR [2], at Pyruvate kinase PKLR [3] and at Pyruvate kinase PKLR [4] was below 100 nM each time.

As for `CC(C)CC1(O)CCN(C(=O)c2ccc(NS(=O)(=O)c3cccc4nccnc34)cc2)CC1`, the AC50 at Pyruvate kinase PKLR [1], at Pyruvate kinase PKLR [2], on Pyruvate kinase PKLR [3] and on Pyruvate kinase PKLR [4] was below 100 nM in each case.

Consider `O=C(c1ccc(NS(=O)(=O)c2cccc3c(O)ncnc23)cc1)N1CCC(O)(CCCC(F)(F)F)CC1`, for which the AC50 on Pyruvate kinase PKLR [1], at Pyruvate kinase PKLR [2], on Pyruvate kinase PKLR [3] and on Pyruvate kinase PKLR [4] was below 100 nM in each case.

On to `CC(C)(C)CC1(O)CCN(C(=O)c2ccc(NS(=O)(=O)c3cccc4nccnc34)cc2)CC1`, for which the AC50 on Pyruvate kinase PKLR [1], at Pyruvate kinase PKLR [2], at Pyruvate kinase PKLR [3] and on Pyruvate kinase PKLR [4] was below 100 nM in each case.

Turning to `O=C(c1ccc(NS(=O)(=O)c2cccc3cccnc23)cc1)N1CCC(O)(CC2CCC2)CC1`, the AC50 at Pyruvate kinase PKLR [1], at Pyruvate kinase PKLR [2], on Pyruvate kinase PKLR [3] and on Pyruvate kinase PKLR [4] was below 100 nM in each case.

In the case of `O=C(c1ccc(NS(=O)(=O)c2cccc3cccnc23)c(F)c1)N1CCC(O)(c2ccccc2Cl)CC1`, the AC50 at Pyruvate kinase PKLR [1], on Pyruvate kinase PKLR [2], at Pyruvate kinase PKLR [3] and at Pyruvate kinase PKLR [4] was below 100 nM throughout.
